Assay results as given in patent US8912226B2 (priority 2012, dated 2014).
Where “and” joins values, the source holds several entries; their conditions need not be identical. Equal entries are not always repeated.

System: rat
Assay: animal or person
Assay type: in vivo
Details: for ED50: ip

SMILES | ED50 (Rattus norvegicus, 2 h) | timepoint of peak effect (rat, in vivo) | ED50 (rat, in vivo)
O=C(O)Cc1ccccc1Nc1c(Cl)cccc1Cl [Diclofenac sodium] | 127 mg/kg | 120 min p. appl. | 127,036 μg/kg and 127,036 (119,433- μg/kg
COc1ccc2c(c1)c(CC(=O)O)c(C)n2C(=O)c1ccc(Cl)cc1 [Indometacin] | 161 mg/kg | 120 min p. appl. | 161,327 μg/kg and 161,327 (149,231- μg/kg
